Test results published in patent EP3031808B1, “SALT OF IDELALISIB” (ratiopharm GmbH, priority 2014, dated 2016).
Where two headings read alike, the source gives them in different places.

Experiments:
[1] = cited from earlier work
[2] = solubilities of salts of idelalisib in buffers and selected media
[3] = water demin. (pH dep.), 15 min.
[4] = water demin. (pH dep.), 60 min.

Compound | solubility in water ([1]; water at pH 1.2) | solubility in water ([1]; water at pH 7) | solubilities ([2]; 0,01m HCl pH ∼2,2, 15 min.) | solubilities ([2]; 0,01m HCl pH ∼2,2, 60 min.) | solubilities ([2]; 20mM NaOAc pH 4.5, 15 min.) | solubilities ([2]; 20mM NaOAc pH 4.5, 60 min.) | solubilities ([2]; 50mM KH2PO4 pH 6.8, 15 min.) | solubilities ([2]; 50mM KH2PO4 pH 6.8, 60 min.) | solubilities ([2]; 0.1 % TPGS (FaSSIF), 15 min.) | solubilities ([2]; 0.1 % TPGS (FaSSIF), 60 min.) | solubilities ([2]; 2.0% TPGS (FeSSIF), 15 min.) | solubilities ([2]; 2.0% TPGS (FeSSIF), 60 min.) | solubilities [2, 3] | solubilities [2, 4] | solubility compared to the free base of idelalisib ([2]; general statement)
CC[C@H](Nc1ncnc2[nH]cnc12)c1nc2cccc(F)c2c(=O)n1-c1ccccc1 [Base, 5-fluoro-3-phenyl-2-[(1S)-1-(9H-purin-6-ylamino)propyl]quinazolin-4(3H)-one] | soluble | practically insoluble | 0.947 | 1.051 | 0.092 | 0.100 | 0.086 | 0.088 | 0.141 | 0.107 | 1.056 | 1.172 | 0.098 | 0.081 | –
Maleate | – | – | 2.445 | 2.655 | 0.411 | 0.475 | 0.355 | 0.393 | 0.662 | 1.121 | 6.798 | 6.984 | 1.934 | 2.095 | increased
